How the values were obtained:
Assay in all cases: relative viability (nuclei count vs DMSO), 5 days (fraction); higher = more cells survive
AZD5582 + Navitoclax = compound: C[C@@H](C(=O)N[C@@H](C1CCCCC1)C(=O)N2CCC[C@H]2C(=O)N[C@@H]3[C@@H](CC4=CC=CC=C34)OCC#CC#CCO[C@@H]5CC6=CC=CC=C6[C@@H]5NC(=O)[C@@H]7CCCN7C(=O)[C@H](C8CCCCC8)NC(=O)[C@H](C)NC)NC [AZD5582] + CC1(C)CCC(c2ccc(Cl)cc2)=C(CN2CCN(c3ccc(C(=O)NS(=O)(=O)c4ccc(N[C@H](CCN5CCOCC5)CSc5ccccc5)c(S(=O)(=O)C(F)(F)F)c4)cc3)CC2)C1 [Navitoclax] (partner 0.5 µM)
Method in brief: (§1)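 Cells from lung cancer lines were seeded into 1536-well plates and, one day later, dosed by pin tool. Treatments were either a single drug or a fixed dose of an anchor drug with five library-drug doses (not always all listed) in √10 steps. After 5 days, nuclei were stained in a one-step fixation (final 0.05% Triton X-100, 1% formaldehyde, 1 ug/ml Hoechst) and counted on 4× images, and relative viability is the treated-to-vehicle nuclei ratio, as the median of duplicate plates.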

[1] = compound: Cn1nnc2c(C(N)=O)ncn2c1=O [Temozolomide] + Cc1cc(Nc2cc(N3CCN(C)CC3)nc(Sc3ccc(NC(=O)C4CC4)cc3)n2)n[nH]1 [Tozasertib] (partner 0.1 µM)
Method in brief: as §1

AZD5582 + Dasatinib = compound: C[C@@H](C(=O)N[C@@H](C1CCCCC1)C(=O)N2CCC[C@H]2C(=O)N[C@@H]3[C@@H](CC4=CC=CC=C34)OCC#CC#CCO[C@@H]5CC6=CC=CC=C6[C@@H]5NC(=O)[C@@H]7CCCN7C(=O)[C@H](C8CCCCC8)NC(=O)[C@H](C)NC)NC [AZD5582] + Cc1nc(Nc2ncc(C(=O)Nc3c(C)cccc3Cl)s2)cc(N2CCN(CCO)CC2)n1 [Dasatinib] (partner 0.075 µM)
Method in brief: as §1

[2] = compound: Cn1nnc2c(C(N)=O)ncn2c1=O [Temozolomide] + Nc1nc2[nH]cc(CCc3ccc(C(=O)N[C@@H](CCC(=O)O)C(=O)O)cc3)c2c(=O)[nH]1 [Pemetrexed] (partner 0.2 µM)
Method in brief: as §1

| Cell Line | relative viability (AZD5582 + Navitoclax; first compound 0.001581 µM) | relative viability (AZD5582 + Navitoclax; first compound 0.005 µM) | relative viability (AZD5582 + Navitoclax; first compound 0.01581 µM) | relative viability (AZD5582 + Navitoclax; first compound 0.05 µM) | relative viability ([1]; first compound 0.2 µM) | relative viability ([1]; first compound 0.6325 µM) | relative viability ([1]; first compound 2 µM) | relative viability ([1]; first compound 6.325 µM) | relative viability ([1]; first compound 20 µM) | relative viability (AZD5582 + Dasatinib; first compound 0.001581 µM) | relative viability (AZD5582 + Dasatinib; first compound 0.005 µM) | relative viability (AZD5582 + Dasatinib; first compound 0.01581 µM) | relative viability (AZD5582 + Dasatinib; first compound 0.05 µM) | relative viability ([2]; first compound 0.2 µM) | relative viability ([2]; first compound 0.6325 µM) | relative viability ([2]; first compound 2 µM) | relative viability ([2]; first compound 6.325 µM) | relative viability ([2]; first compound 20 µM) |
| --- | --- | --- | --- | --- | --- | --- | --- | --- | --- | --- | --- | --- | --- | --- | --- | --- | --- | --- |
| NCI-H1915 | 0.777 | 0.757 | 0.793 | 0.746 | 0.482 | 0.417 | 0.471 | 0.317 | 0.268 | 0.324 | 0.339 | 0.267 | 0.328 | 0.55 | 0.491 | 0.545 | 0.429 | 0.321 |
| NCI-H1944 | 0.985 | 1.13 | 1.08 | 1.11 | 0.241 | 0.273 | 0.327 | 0.284 | 0.257 | 0.244 | 0.228 | 0.227 | 0.238 | 0.546 | 0.601 | 0.564 | 0.58 | 0.623 |
| NCI-H1975 | 1.12 | 1.19 | 1.18 | 1.2 | 0.975 | 0.718 | 0.823 | 0.699 | 0.737 | 0.322 | 0.447 | 0.428 | 0.408 | 0.307 | 0.323 | 0.319 | 0.299 | 0.289 |
| NCI-H1993 | 0.917 | 0.936 | 0.876 | 0.922 | 0.566 | 0.618 | 0.616 | 0.577 | 0.639 | 0.634 | 0.576 | 0.557 | 0.573 | 0.517 | 0.669 | 0.598 | 0.569 | 0.525 |
| NCI-H2009 | 1.14 | 1.21 | 1.15 | 1.18 | 0.821 | 0.722 | 0.766 | 0.762 | 0.735 | 0.297 | 0.382 | 0.268 | 0.307 | 1.08 | 1.06 | 1.05 | 1.08 | 1.04 |
| NCI-H2023 | 0.962 | 0.844 | 1.01 | 0.956 | 0.427 | 0.361 | 0.344 | 0.359 | 0.403 | 0.521 | 0.581 | 0.553 | 0.49 | 0.232 | 0.249 | 0.249 | 0.221 | 0.228 |
| NCI-H2085 | 1.14 | 1.1 | 1.12 | 1.01 | 0.735 | 0.784 | 0.86 | 0.817 | 0.855 | 0.265 | 0.366 | 0.282 | 0.355 | 1.04 | 0.951 | 0.979 | 0.926 | 0.744 |
| NCI-H2087 | 1.03 | 0.864 | 1.05 | 1.05 | 0.273 | 0.219 | 0.292 | 0.286 | 0.25 | 0.7 | 0.915 | 0.848 | 0.945 | 0.624 | 0.667 | 0.663 | 0.676 | 0.696 |
| NCI-H2126 | 0.829 | 0.835 | 0.834 | 0.706 | 0.767 | 0.864 | 0.909 | 0.782 | 0.87 | 0.61 | 0.678 | 0.555 | 0.684 | 0.573 | 0.653 | 0.762 | 0.666 | 0.67 |
| NCI-H2170 | 0.551 | 0.624 | 0.624 | 0.758 | – | 0.75 | 0.756 | 0.668 | 0.405 | 0.494 | 0.571 | 0.558 | 0.471 | – | 0.283 | 0.264 | 0.253 | 0.237 |
| NCI-H2228 | 0.904 | 0.851 | 0.837 | 0.555 | 0.246 | 0.322 | 0.206 | 0.212 | 0.251 | 0.437 | 0.506 | 0.478 | 0.139 | 0.383 | 0.349 | 0.348 | 0.266 | 0.352 |
| NCI-H2347 | 0.747 | 0.941 | 0.791 | 0.748 | 0.496 | 0.552 | 0.579 | 0.544 | 0.576 | 0.304 | 0.663 | 0.341 | 0.303 | 0.466 | 0.447 | 0.429 | 0.426 | 0.461 |
| NCI-H2405 | 0.875 | 1.21 | – | 0.866 | 0.716 | 0.722 | 0.791 | 0.72 | 0.776 | 0.199 | 0.24 | 0.155 | 0.226 | 1.08 | 1.03 | 1.14 | 1.03 | 0.965 |
| NCI-H3122 | 1.04 | 1.03 | 1.01 | 0.619 | 0.257 | 0.482 | 0.47 | 0.356 | 0.46 | 0.729 | 0.707 | 0.802 | 0.185 | 0.187 | 0.205 | 0.188 | 0.196 | 0.193 |
| PC-3 [JPC-3] | 0.752 | 0.727 | 0.664 | 0.486 | 0.935 | 0.945 | 0.934 | 0.901 | 0.431 | 0.861 | 0.794 | 0.97 | 0.193 | 1.22 | 1.13 | 1.16 | 1.06 | 0.458 |
| PC-14 | 1.06 | 0.967 | 0.969 | 1.11 | 0.439 | 0.608 | 0.558 | 0.293 | 0.0992 | 0.258 | 0.302 | 0.219 | 0.257 | 0.138 | 0.12 | 0.138 | 0.145 | 0.14 |
| RERF-LC-KJ | 0.375 | – | 0.825 | 0.295 | 0.535 | 0.465 | 0.538 | 0.504 | 0.499 | – | – | 0.723 | 0.696 | 0.484 | 0.507 | 0.486 | 0.464 | 0.461 |
| SK-LU-1 | 0.462 | 0.471 | 0.819 | 0.351 | 0.354 | 0.326 | 0.335 | 0.273 | 0.235 | 0.147 | 0.0852 | 0.174 | 0.0634 | 1.06 | 1.01 | 0.875 | 0.495 | 0.522 |
| SK-MES-1 | 1.22 | 1.3 | 1.25 | 1.15 | 1.02 | 0.919 | 0.985 | 0.939 | 0.973 | 0.246 | 0.445 | 0.367 | 0.279 | 1.01 | 0.911 | 0.975 | 0.92 | 0.866 |
| SW 1573 | 0.848 | 0.926 | 0.82 | 1.32 | 0.298 | 0.177 | 0.162 | 0.207 | 0.169 | 0.56 | 0.732 | 0.573 | 0.566 | 0.907 | 0.833 | 0.845 | 0.867 | 0.846 |
| UMC-11 | 0.333 | 0.299 | 0.335 | 0.321 | 0.204 | 0.198 | 0.214 | 0.198 | 0.191 | 0.424 | 0.455 | 0.447 | 0.414 | 0.758 | 0.712 | 0.835 | 0.805 | 0.588 |

From the supplement of paper PMC10307832
